Source: patent US20130023589A1, “MEDICATION FOR THERAPY OR PROPHYLAXIS OF ASTHMA” (priority 2011, published 2013)

Key:
[1] = tested on: primary human bronchial smooth cells (BSMC); assay: QCM Chemotaxis cell migration assay of BSMCs cocultured with DBP-treated BEAS-2B cells; format: cell-based; conditions: 5 μM ginger compound, then coculture with DBP-BEAS for 24 hours; groups A1-7 to A1-10, FIG. 6
Method: (§1) With reference to FIG. 5, the plasticizers-treated bronchial smooth muscle cells are prepared by processing two steps. In the first step, a plasticizer-treated bronchial epithelial cell line is obtained by harvesting a human bronchial epithelial cell line in a chemical plasticizer at 37±1° C. for 6 hours, with each 100 mm incubating plate receiving 2×10^6 cells and with the treatment of the chemical plasticizer to induce the excretion of proinflammatory cytokines in the human bronchial epithelial cell line, such as IL-8 and RANTES, followed by removing the chemical plasticizer from the human bronchial epithelial cell line, reincubating the human bronchial epithelial cell lines in a culturing medium for 24 hours, and finally collecting the supernatants to obtain plasticizers-treated bronchial epithelial cells of the present invention. In specification, the chemical plasticizer of the present invention can be selected from a group of butylbenzyl phthalate (BBP), bis-(2-ethylhexyl) phthalate (BEHP), dibutyl phthalate (DBP) and diethyl phthalate (DEP), and with the concentration of 0.1 to 5.0 μM.
(§2) In the second step, the plasticizer-treated bronchial epithelial cells obtained from the first step are coincubated with a human bronchial smooth muscle cell line to obtain the plasticizer-treated bronchial smooth muscle cells of the present invention. […]
With reference of TABLE 1, the BSMCs are previously seeded into a migration chamber for 24 hours, with the BSMCs placing on the surface of the migration chamber, and randomly assigned into 10 groups including A1-1 to A1-10 to carry out various treatments between 10 groups. […] After the treatments, the BSMCs of the groups A1-1 to A1-10 are analyzed by a QCM Chemotaxis […] cell migration assay system (Chemicon, Temecula, Calif.; Millipore Corp, Bedford, Mass.), with the BSMCs in each group being stained, lysed and finally quantified on a microplate at 560 nm. […]

[2] = tested on: primary human bronchial smooth cells (BSMC); assay: WST-1 cell proliferation assay of BSMCs cocultured with DBP-treated BEAS-2B cells; format: cell-based; conditions: 5 μM ginger compound for 1 hour, then coculture with DBP-BEAS for 72 hours; groups A2-7 to A2-10, FIG. 7
Method: as §1, §2
Additionally, with reference to TABLE 2, the BSMCs are placed and preincubated in 96-well culture plates for 24 hours, followed by randomly assigning into 10 groups including A2-1 to A2-10 to carry out various treatments between 10 groups. […] After the various treatments of each group, the proliferation degrees of BSMCs in each group are determined by Premixed WST-1 Cell Proliferation Reagent (Clontech Laboratories Inc., Mountain View, Calif.).

Compound: CCCCC[C@H](O)CC(=O)CCc1ccc(O)c(OC)c1 [[6]-gingerol]
- plasticizer-induced airway remodeling: migration of BSMCs [1]: sufficient in suppressing
- plasticizer-induced airway remodeling: proliferation of BSMCs [2]: sufficient in suppressing

Compound: CCCCC/C=C/C(=O)CCc1ccc(O)c(OC)c1 [[6]-shogaol]
- plasticizer-induced airway remodeling: migration of BSMCs [1]: sufficient in suppressing
- plasticizer-induced airway remodeling: proliferation of BSMCs [2]: sufficient in suppressing

Compound: CCCCCCCCC[C@H](O)CC(=O)CCc1ccc(O)c(OC)c1 [[10]-gingerol]
- plasticizer-induced airway remodeling: migration of BSMCs [1]: sufficient in suppressing
- plasticizer-induced airway remodeling: proliferation of BSMCs [2]: sufficient in suppressing
